Measurements reported in US4400378A, “Pharmaceutical composition for the treatment of glaucoma” (priority 1981, dated 1983).
Where a name gives a salt, the structure may show the parent alone.

Tests used:
[1] = Oral acute toxicity (LD50) in the mouse; conditions: in vivo
Excerpt: Furthermore, the compounds of the formula I and their non-toxic, pharmacologically acceptable acid addition salts show good compatibility.

intraocular pressure = test: Intraocular pressure in rabbits after topical application to the eye (tonometric, Alcon Applanation Pneumotonograph); type: in vivo, white New Zealand rabbits; conditions: 2 drops (50 μl) per eye, rabbit
Method: B=2-Amino-6-allyl-5,6,7,8-tetrahydro-4H-thiazolo[4,5-d]azepine dihydrochloride. The tests were performed on white New Zealand rabbits of both sexes having a body weight of 2.5 to 3 kg. Each rabbit was used for 4 tests at intervals of at least 3 days between tests.
The intraocular pressure was measured tonometrically with an Alcon Applanation Pneumotonograph (APTG) calibrated for the human eye. By means of a factor obtained by comparison of the manometric values and APTG values in rabbits anesthetized with urethane, the so-called real pressures were determined. Moreover, before each measurement the cornea was anesthetized with 20 μl of an 0.05% oxybuprocain [2-(diethylamino)-ethyl-4-amino-3-butoxy-benzoate] solution.
The test compound was dropped at different concentrations directly into each eye, 2 drops (50 μl) per eye.

Row | Structure (SMILES) | LD50 [1] [mg/kg] | Reduction of the intraocular pressure in % after one hour (intraocular pressure; 0.3% concentration) [%] | Reduction of the intraocular pressure in % after one hour (intraocular pressure; 1.0% concentration) [%] | Reduction of the intraocular pressure in % after one hour (intraocular pressure; 3.0% concentration) [%] | Values of the intraocular pressure in mmHg after one hour (intraocular pressure; 0.01% concentration) [mmHg] | Values of the intraocular pressure in mmHg after one hour (intraocular pressure; 0.03% concentration) [mmHg] | Values of the intraocular pressure in mmHg after one hour (intraocular pressure; concentration 0.3 (% not given)) [mmHg] | Values of the intraocular pressure in mmHg after one hour (intraocular pressure; concentration 1.0 (% not given)) [mmHg]
1 | CCN1CCc2nc(N)oc2CC1 [Compound A, 2-Amino-6-ethyl-5,6,7,8-tetrahydro-4H-oxoazolo[4,5-d]azepine dihydrochloride] | 2.21 | -15 | -21 | -32 |  |  |  | 
2 | C=CCN1CCc2nc(N)sc2CC1.Cl.Cl [Compound B, 2-Amino-6-allyl-5,6,7,8-tetrahydro-4H-thiazolo[4,5-d]azepine dihydrochloride] | 455 |  |  |  | 15 | 14.5 | 13 | 10
